Assays:
BALB/c-nu/nu mice = test: Evaluation of mitogenic activity (BrdU immunostaining of skin tissue); assay type: in vivo; details: once per day for 7 days
Description: Dorsal body hair skin was collected from BALB/c-nu/nu mice (Japan SLC, Inc.; Japan) of age 7 to 8 weeks. Testing and breeding of animals complied with pertinent laws, regulations, ordinances, and guidelines, and was performed with the approval of the Experimental Ethics Review Board of the Institute of Physical and Chemical Research. The following drugs were respectively prepared. • Working Example: 3% phytosphingosine solution • Comparative Example: 60% aqueous ethanol solution A micropipette was used to apply 25 μL of the drug to the left and right dorsal regions of the BALB/c-nu/nu mice. A dryer was thereafter used to cause cool air to be directed at the location where this was applied and rapidly dry the drug. This procedure was carried out in repetitive fashion four times at each the left and right dorsal regions. This drug application procedure was carried out for seven days starting from the day following depilation. 24 hours and 48 hours prior to collection of dorsal body hair skin from BALB/c-nu/nu mice on which the drug had been applied for 7 days, a syringe (Terumo Corporation; Japan) was used to administer 0.5 mL of 10 mg/mL BrdU/physiological saline solution to the abdomen in the region of the hind legs of each mouse. Following euthanization by cervical dislocation of the BALB/c-nu/nu mice on the eighth day at the same time as when administration had been carried out, skin tissue was collected in a manner such as would not cause damage to the hair bulb. The collected skin tissue was immersed for 16 to 24 hours in SuperFix (Toyobo Co., Ltd.; Japan) fixative solution, following which this was washed four times in 1×PBS, placed in fresh 1X PBS, and stored. The necessary portion of the collected skin tissue was cut out therefrom, and a paraffin fluid exchange apparatus (Leica Microsystems GmbH; Germany) was used to fabricate a paraffin block therefrom. […] BrdU counts were measured at three locations of 100 μm^2 for the epidermal layer and the dermal layer, measurement being carried out at three sites of size on the same order for the hair follicle. […]

VEGF gene = test: Human dermal papilla cell VEGF gene expression (real-time PCR); assay type: cell-based; details: 72 hours; for amount of expression of the VEGF gene as compared with the control group: human dermal papilla cells
Description: Human dermal papilla cells (Catalog No. CA602t05a; derived from person; Toyobo Co., Ltd. (Japan)) were purchased, testing and evaluation being carried out with maintenance and culture of cells being performed as described in the protocol.
As drugs for testing, drug solutions of the following respective concentrations (final concentrations) were prepared and used. • Comparative Example 5: 30 μM minoxidil • Comparative Example 6: 100 μM adenosine • Working Example 3: 0.3125 μM phytosphingosine • Working Example 4: 1.25 μM phytosphingosine
A 24-well plate was seeded with human dermal papilla cells so as to obtain 6×10^3 thereof per well. Following culture for 1 day within a CO2 incubator (5% CO2; 37° C.), the culture medium was replaced with culture medium which contained the respective drugs for testing. The cell plate was thereafter returned to the CO2 incubator, and this was further cultured for 72 hours. Following culture, total RNA was extracted from the respective wells and was recovered, and this was reverse-transcribed into cDNA. The cDNA that was prepared was used to measure VEGF gene expression in accordance with the real-time PCR method. The GAPDH gene was used as an internal standard, the amount of VEGF gene expression being calculated relative to the negative control group. […]
300 μL of lysis buffer RL was added thereto per well, and the cells were lysed by pipetting. […] Concentration of the recovered RNA was measured using a NanoDrop Lite (Catalog No. ND-LITE; Thermo Fisher Scientific K.K.), and this was stored at −80° C. until the following cDNA creation procedure.
A FastGene scriptase II cDNA synthesis 5X Ready Mix (Catalog No. NE-LS64; Nippon Genetics Co., Ltd. (Japan)) was used to synthesize cDNA. Dilution with RNase Free Water was carried out so as to cause concentration of total RNA produced in a new tube to be 20 ng/mL, 4 μL of FastGene scriptase II cDNA synthesis 5X Ready Mix was added to 16 μL of this sample solution, and this was agitated by vortexing. […]

CCCCCCCCCCCCCC[C@@H](O)[C@@H](O)[C@@H](N)CO [phytosphingosine]
mitogenic activity (BrdU counts) as compared with the negative control and the positive control (BALB/c-nu/nu mice; 3% phytosphingosine solution): trend toward increased mitogenic activity
mitogenic activity at the basal layer of the epidermis (BALB/c-nu/nu mice; 3% phytosphingosine solution): increase in mitogenic activity
mitogenic activity at the hair follicle (BALB/c-nu/nu mice; 3% phytosphingosine): improved
amount of expression of the VEGF gene as compared with the control group (VEGF gene; 0.3125 μM phytosphingosine (Working Example 3)): increase
amount of expression of the VEGF gene as compared with the control group (VEGF gene; 1.25 μM phytosphingosine (Working Example 4)): increase
amount of expression of the VEGF gene compared with 30 μM minoxidil (Comparative Example 5) or 100 μM adenosine (Comparative Example 6) (VEGF gene; increased amount of phytosphingosine added): greater

From patent US20240099951A1, “HAIR GROWTH STIMULANT” (ADJUVANT HOLDINGS CO., LTD., priority 2020, published 2024)
